Results as given in BindingDB's records for doi:10.1016/j.bmcl.2003.08.056 (Merck Research Laboratories, 2003).

How the values were obtained:
[1] = molecular target: T1, cGMP-inhibited 3',5'-cyclic phosphodiesterase 3A [388-1112] (Homo sapiens, UniProt Q14432); test: PDE SPA Enzyme Inhibition Assay
T1 construct: 388-1112
Experimental: (§1) PDE activity was monitored by measuring the hydrolysis of [3H]-cAMP to [3H]-AMP using scintillation proximity assay (SPA). [3H]-AMP was captured by the SPA beads, and quantified on a TopCount plate reader. Data was analyzed in Graph Pad Prism software.

[2] = molecular target: T2, cGMP-inhibited 3',5'-cyclic phosphodiesterase 3B [387-1112] (Homo sapiens, UniProt Q13370); test: PDE SPA Enzyme Inhibition Assay
T2 construct: 387-1112
Experimental: as §1

T1 sequence (Q14432 388-1112): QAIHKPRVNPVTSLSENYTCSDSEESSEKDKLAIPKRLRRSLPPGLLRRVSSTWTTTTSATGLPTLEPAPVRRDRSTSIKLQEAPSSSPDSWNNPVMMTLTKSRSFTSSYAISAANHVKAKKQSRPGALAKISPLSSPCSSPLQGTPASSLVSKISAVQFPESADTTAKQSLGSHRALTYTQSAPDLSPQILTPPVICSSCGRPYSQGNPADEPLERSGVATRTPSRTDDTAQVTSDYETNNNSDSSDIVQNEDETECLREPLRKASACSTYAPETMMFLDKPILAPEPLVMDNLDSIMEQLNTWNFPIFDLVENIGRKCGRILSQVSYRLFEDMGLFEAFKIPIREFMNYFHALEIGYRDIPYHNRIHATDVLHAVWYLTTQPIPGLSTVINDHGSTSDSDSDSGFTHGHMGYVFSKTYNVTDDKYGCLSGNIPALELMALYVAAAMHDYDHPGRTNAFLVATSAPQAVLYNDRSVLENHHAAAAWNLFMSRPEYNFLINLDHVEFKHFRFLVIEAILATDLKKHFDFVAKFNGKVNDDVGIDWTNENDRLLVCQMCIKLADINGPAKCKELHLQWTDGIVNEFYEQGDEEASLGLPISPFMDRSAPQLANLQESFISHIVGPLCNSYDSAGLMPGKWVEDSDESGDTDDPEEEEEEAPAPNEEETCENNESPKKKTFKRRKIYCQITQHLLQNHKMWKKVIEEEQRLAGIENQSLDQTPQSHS
T2 sequence (Q13370 387-1112): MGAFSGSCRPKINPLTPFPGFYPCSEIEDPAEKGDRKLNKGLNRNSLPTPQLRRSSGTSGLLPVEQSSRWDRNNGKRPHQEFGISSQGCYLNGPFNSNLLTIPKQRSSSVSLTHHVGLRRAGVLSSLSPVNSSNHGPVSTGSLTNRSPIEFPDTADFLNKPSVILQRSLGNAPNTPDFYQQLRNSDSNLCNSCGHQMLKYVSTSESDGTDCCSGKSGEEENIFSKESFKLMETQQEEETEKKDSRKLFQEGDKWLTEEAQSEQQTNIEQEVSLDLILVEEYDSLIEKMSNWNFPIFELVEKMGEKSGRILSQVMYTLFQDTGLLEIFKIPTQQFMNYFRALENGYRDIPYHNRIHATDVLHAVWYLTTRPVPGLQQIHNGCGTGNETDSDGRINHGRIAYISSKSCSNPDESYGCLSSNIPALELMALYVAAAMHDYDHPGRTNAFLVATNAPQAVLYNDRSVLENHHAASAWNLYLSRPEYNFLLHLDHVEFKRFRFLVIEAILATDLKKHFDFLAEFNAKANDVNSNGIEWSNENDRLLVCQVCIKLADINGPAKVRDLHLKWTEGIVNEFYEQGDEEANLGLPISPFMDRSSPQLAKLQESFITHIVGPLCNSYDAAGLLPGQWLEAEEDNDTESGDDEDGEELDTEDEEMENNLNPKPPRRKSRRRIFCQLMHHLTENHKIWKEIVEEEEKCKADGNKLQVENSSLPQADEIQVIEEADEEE

Row | Structure (SMILES) | IC50 [1] [nM] | IC50 [2] [nM] | IC50 ([2]; pH 7.5, 22 °C) [nM]
1 | CC1(C)C(=O)NN=C1c1ccc(NC2=C(Cc3cccc(C#N)c3)C(=O)CCC2)c(F)c1F [3-[(2-{[4-(4,4-dimethyl-5-oxo-4,5-dihydro-1H-pyrazol-3-yl)-2,3-difluorophenyl]amino}-6-oxocyclohex-1-en-1-yl)methyl]benzonitrile] | 7.6 | 0.33 | –
2 | CC1CC(=O)NN=C1c1ccc(NC2=C(Cc3ccccc3)C(=O)CCC2)c(F)c1 (stereo not given) [6-{4-[(2-benzyl-3-oxocyclohex-1-en-1-yl)amino]-3-fluorophenyl}-5-methyl-2,3,4,5-tetrahydropyridazin-3-one] | 1.2 | 0.26 | –
3 | Cc1cc(C2=NNC(=O)CC2C)ccc1NC1=C(Cc2ccccc2)C(=O)CCC1 (stereo not given) [6-{4-[(2-benzyl-3-oxocyclohex-1-en-1-yl)amino]-3-methylphenyl}-5-methyl-2,3,4,5-tetrahydropyridazin-3-one] | 3.7 | 0.61 | –
4 | C[C@@H]1CC(=O)NN=C1c1ccc(NC2=C(Cc3cccc(-c4cccc([N+](=O)[O-])c4)c3)C(=O)CCC2)cc1 [(5R)-5-methyl-6-{4-[(2-{[3-(3-nitrophenyl)phenyl]methyl}-3-oxocyclohex-1-en-1-yl)amino]phenyl}-2,3,4,5-tetrahydropyridazin-3-one] | 0.11 | – | 0.049
5 | C[C@@H]1CC(=O)NN=C1c1ccc(NC2=C(Cc3cccc(-c4ccsc4)c3)C(=O)CCC2)cc1 [(5R)-5-methyl-6-{4-[(3-oxo-2-{[3-(thiophen-3-yl)phenyl]methyl}cyclohex-1-en-1-yl)amino]phenyl}-2,3,4,5-tetrahydropyridazin-3-one] | 0.11 | – | 0.068
